Measurements: patent US6737383B1, “Herbicidal oxadiazolidines” (priority 1999, dated 2004)

Assays:
wild oat = assay: Test B pre/postemergence wild oat; format: in vivo, Avena fatua
Procedure, shortened: (§1)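 Test chemicals in a non-phytotoxic solvent mixture with surfactant were sprayed preemergence onto planted seeds and postemergence onto plants 2 to 18 cm tall (1- to 4-leaf stage). After twelve to sixteen days in a greenhouse, injury was visually rated against untreated controls from 0 (no effect) to 10 (complete control).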

surinam grass = assay: Test B pre/postemergence surinam grass; format: in vivo, Brachiaria decumbens
Procedure, shortened: as §1

purple nutsedge = assay: Test B pre/postemergence purple nutsedge; format: in vivo, Cyperus rotundus
Procedure, shortened: as §1

giant foxtail = assay: Test B pre/postemergence giant foxtail; format: in vivo, Setaria faberii
Procedure, shortened: as §1

soybean = assay: Test B pre/postemergence soybean; format: in vivo, Glycine max
Procedure, shortened: as §1

morningglory = assay: Test B pre/postemergence morningglory; format: in vivo, Ipomoea hederacea
Procedure, shortened: as §1

blackgrass = assay: Test B pre/postemergence blackgrass; format: in vivo, Alopecurus myosuroides
Procedure, shortened: as §1

corn = assay: Test B pre/postemergence corn; format: in vivo, Zea mays
Procedure, shortened: as §1

wheat = assay: Test B pre/postemergence wheat; format: in vivo, Triticum aestivum
Procedure, shortened: as §1

crabgrass = assay: Test B pre/postemergence crabgrass; format: in vivo, Digitaria sanguinalis
Procedure, shortened: as §1

sugar beet = assay: Test B pre/postemergence sugar beet; format: in vivo, Beta vulgaris
Procedure, shortened: as §1

rape = assay: Test B pre/postemergence rape; format: in vivo, Brassica napus
Procedure, shortened: as §1

cocklebur = assay: Test B pre/postemergence cocklebur; format: in vivo, Xanthium strumarium
Procedure, shortened: as §1

bedstraw = assay: Test B pre/postemergence bedstraw; format: in vivo, Galium aparine
Procedure, shortened: as §1

pigweed = assay: Test B pre/postemergence pigweed; format: in vivo, Amaranthus retroflexus
Procedure, shortened: as §1

velvetleaf = assay: Test B pre/postemergence velvetleaf; format: in vivo, Abutilon theophrasti
Procedure, shortened: as §1

[1] = Postemergence, Rate 62 g/ha, scale of 0 to 10, 0 is no effect, 10 is complete control
[2] = Postemergence, Rate 500 g/ha, scale 0 to 10, 0 is no effect, 10 is complete control
[3] = Preemergence, Rate 62 g/ha, scale 0 to 10 (0 no effect, 10 complete control)
[4] = Preemergence, Rate 125 g/ha, scale 0 to 10, 0 is no effect, 10 is complete control
[5] = Rate 250 g/ha, Postemergence, scale of 0 to 10 where 0 is no effect and 10 is complete control
[6] = Postemergence, Rate 125 g/ha, scale 0 to 10, 0 is no effect, 10 is complete control
[7] = Preemergence, Rate 500 g/ha, scale of 0 to 10 where 0 is no effect and 10 is complete control

CCC(=O)Cn1c(=O)on(C(=O)N(c2ccc(Cl)cc2)C(C)C)c1=O [Compound 553]
Wild oats plant response rating (wild oat; [1]): 0
Plant response rating, Wild oats (wild oat; [2]): 2
Wild oats plant response rating (wild oat; [3]): 0
Wild oats plant response rating (wild oat; [4]): 0
Wild oats plant response rating (0 to 10 scale) (wild oat; Preemergence, Rate 250 g/ha): 3
Plant response rating, Wild oats (wild oat; [5]): 2
B. signalgrass plant response rating (surinam grass; [1]): 0
B. signalgrass plant response rating (surinam grass; [6]): 0
Plant response rating, B. signalgrass (surinam grass; [2]): 5
B. signalgrass plant response rating (surinam grass; [3]): 6
B. signalgrass plant response rating (surinam grass; [4]): 9
B. signalgrass plant response rating (0 to 10 scale, 0 is no effect, 10 is complete control) (surinam grass; Preemergence, Rate 250 g/ha): 9
B. signalgrass plant response rating (surinam grass; [7]): 8
Plant response rating, B. signalgrass (surinam grass; [5]): 3
Nutsedge plant response rating (purple nutsedge; [1]): 0
Nutsedge plant response rating (purple nutsedge; [6]): 0
Nutsedge plant response rating (purple nutsedge; [3]): 0
Nutsedge plant response rating (purple nutsedge; [4]): 0
Nutsedge plant response rating (0 to 10 scale) (purple nutsedge; Preemergence, Rate 250 g/ha): 0
Nutsedge plant response rating (purple nutsedge; [7]): 0
Plant response rating, Nutsedge (purple nutsedge; [5]): 0
Giant foxtail plant response rating (giant foxtail; [1]): 0
Giant foxtail plant response rating (giant foxtail; [6]): 7
Plant response rating, Giant foxtail (giant foxtail; [2]): 7
Giant foxtail plant response rating (giant foxtail; [3]): 10
Giant foxtail plant response rating (giant foxtail; [4]): 10
Giant foxtail plant response rating (0 to 10 scale) (giant foxtail; Preemergence, Rate 250 g/ha): 10
Giant foxtail plant response rating (giant foxtail; [7]): 10
Plant response rating, Giant foxtail (giant foxtail; [5]): 6
Soybean plant response rating (soybean; [1]): 1
Soybean plant response rating (soybean; [3]): 0
Soybean plant response rating (soybean; [4]): 0
Soybean plant response rating (0 to 10 scale) (soybean; Preemergence, Rate 250 g/ha): 0
Soybean plant response rating (soybean; [7]): 3
Plant response rating, Soybean (soybean; [5]): 3
Morningglory plant response rating (morningglory; [1]): 0
Morningglory plant response rating (morningglory; [6]): 0
Plant response rating, Morningglory (morningglory; [2]): 0
Morningglory plant response rating (morningglory; [3]): 0
Morningglory plant response rating (morningglory; [4]): 0
Morningglory plant response rating (0 to 10 scale) (morningglory; Preemergence, Rate 250 g/ha): 0
Morningglory plant response rating (morningglory; [7]): 2
Plant response rating, Morningglory (morningglory; [5]): 0
Blackgrass plant response rating (blackgrass; [1]): 0
Blackgrass plant response rating (blackgrass; [6]): 0
Plant response rating, Blackgrass (blackgrass; [2]): 7
Blackgrass plant response rating (blackgrass; [3]): 7
Blackgrass plant response rating (blackgrass; [4]): 7
Blackgrass plant response rating (0 to 10 scale) (blackgrass; Preemergence, Rate 250 g/ha): 7
Plant response rating, Blackgrass (blackgrass; [5]): 3
Corn plant response rating (corn; [1]): 0
Corn plant response rating (corn; [6]): 0
Plant response rating, Corn (corn; [2]): 0
Corn plant response rating (corn; [3]): 0
Corn plant response rating (corn; [4]): 0
Corn plant response rating (0 to 10 scale) (corn; Preemergence, Rate 250 g/ha): 0
Corn plant response rating (corn; [7]): 3
Plant response rating, Corn (corn; [5]): 0
Wheat plant response rating (wheat; [1]): 0
Plant response rating, Wheat (wheat; [2]): 3
Wheat plant response rating (wheat; [4]): 0
Wheat plant response rating (0 to 10 scale) (wheat; Preemergence, Rate 250 g/ha): 0
Plant response rating, Wheat (wheat; [5]): 0
Crabgrass plant response rating (crabgrass; [1]): 0
Crabgrass plant response rating (crabgrass; [6]): 3
Plant response rating, Crabgrass (crabgrass; [2]): 9
Crabgrass plant response rating (crabgrass; [3]): 10
Crabgrass plant response rating (crabgrass; [4]): 9
Crabgrass plant response rating (0 to 10 scale) (crabgrass; Preemergence, Rate 250 g/ha): 10
Crabgrass plant response rating (crabgrass; [7]): 10
Plant response rating, Crabgrass (crabgrass; [5]): 8
Sugarbeets plant response rating (sugar beet; [1]): 0
Plant response rating, Sugarbeets (sugar beet; [2]): 2
Sugarbeets plant response rating (sugar beet; [3]): 0
Sugarbeets plant response rating (sugar beet; [4]): 3
Sugarbeets plant response rating (0 to 10 scale) (sugar beet; Preemergence, Rate 250 g/ha): 3
Plant response rating, Sugarbeets (sugar beet; [5]): 0
Rape plant response rating (rape; [1]): 2
Rape plant response rating (rape; [6]): 6
Rape plant response rating (rape; [3]): 0
Rape plant response rating (rape; [4]): 3
Rape plant response rating (0 to 10 scale) (rape; Preemergence, Rate 250 g/ha): 3
Plant response rating, Rape (rape; [5]): 7
Cocklebur plant response rating (cocklebur; [1]): 0
Plant response rating, Cocklebur (cocklebur; [2]): 2
Cocklebur plant response rating (cocklebur; [4]): 0
Cocklebur plant response rating (0 to 10 scale) (cocklebur; Preemergence, Rate 250 g/ha): 0
Cocklebur plant response rating (cocklebur; [7]): 10
Plant response rating, Cocklebur (cocklebur; [5]): 0
Bedstraw plant response rating (bedstraw; [1]): 0
Bedstraw plant response rating (bedstraw; [6]): 2
Plant response rating, Bedstraw (bedstraw; [2]): 7
Bedstraw plant response rating (bedstraw; [3]): 0
Bedstraw plant response rating (bedstraw; [4]): 0
Bedstraw plant response rating (0 to 10 scale) (bedstraw; Preemergence, Rate 250 g/ha): 2
Bedstraw plant response rating (bedstraw; [7]): 10
Plant response rating, Bedstraw (bedstraw; [5]): 2
Redroot pigweed plant response rating (pigweed; [1]): 0
Plant response rating, Redroot pigweed (pigweed; [2]): 0
Redroot pigweed plant response rating (pigweed; [3]): 0
Redroot pigweed plant response rating (pigweed; [4]): 7
Redroot pigweed plant response rating (0 to 10 scale) (pigweed; Preemergence, Rate 250 g/ha): 9
Plant response rating, Redroot pigweed (pigweed; [5]): 0
Velvetleaf plant response rating (velvetleaf; [3]): 0
Velvetleaf plant response rating (velvetleaf; [4]): 0
Velvetleaf plant response rating (0 to 10 scale) (velvetleaf; Preemergence, Rate 250 g/ha): 0
Velvetleaf plant response rating (velvetleaf; [7]): 2
Plant response rating, Velvetleaf (velvetleaf; [5]): 5
